Our source for the EC50 values is US5962501A, “Enantiomer of carbazole derivative as 5-HT1-like agonists” (SmithKline Beecham, p.l.c., priority 1992, dated 1999).

This assay has as its target T1, 5-HT1 -like receptor (Oryctolagus cuniculus, UniProt P49144).
T1 construct: Arteries were then cut into ring segments (ca 4-5 mm wide) and set up for recording of isometric tension; from tissue; host or cells: rabbit basilar artery rings, endothelium removed
Put plainly: 5-HT1-like receptor screen, rabbit isolated basilar artery (cumulative concentration-effect curves, isometric tension). In kind it is cell-based. The settings on record: in presence of ascorbate, indomethacin, cocaine, ketanserin and prazosin. The procedure:
5-HT1 -like Receptor Screen
In brief, rabbits were killed by overdose with anaesthetic (sodium pentobarbitone). The whole brain was quickly removed and immersed in ice cold modified Kreb's solution and the basilar artery removed with the aid of a dissecting microscope. […] The endothelium was removed by a gentle rubbing of the lumen with a fine metal wire. […] The arteries were then placed under a resting force of 3-4 mN maintained at 37° C. and the solution bubbled with 95% O2 /5% CO2.
After tests for initial reactivity with 90 mM KCl depolarising solution and for lack of acetylcholine-induced relaxation of 5-HT ([…]) precontraction, cumulative concentration-effect curves ([…]) to 5-HT were constructed in the presence of ascorbate […], cocaine […], indomethacin […], ketanserin […] and prazosin […].
Following a 45-60 min wash period, cumulative concentration-effect curves to the test compounds or 5-HT (as a time match control) were constructed in the presence of ascorbate, indomethacin, cocaine, ketanserin and prazosin.

In general, EC50 refers to the midpoint of the concentration-response curve.

T1 sequence (P49144 whole entry): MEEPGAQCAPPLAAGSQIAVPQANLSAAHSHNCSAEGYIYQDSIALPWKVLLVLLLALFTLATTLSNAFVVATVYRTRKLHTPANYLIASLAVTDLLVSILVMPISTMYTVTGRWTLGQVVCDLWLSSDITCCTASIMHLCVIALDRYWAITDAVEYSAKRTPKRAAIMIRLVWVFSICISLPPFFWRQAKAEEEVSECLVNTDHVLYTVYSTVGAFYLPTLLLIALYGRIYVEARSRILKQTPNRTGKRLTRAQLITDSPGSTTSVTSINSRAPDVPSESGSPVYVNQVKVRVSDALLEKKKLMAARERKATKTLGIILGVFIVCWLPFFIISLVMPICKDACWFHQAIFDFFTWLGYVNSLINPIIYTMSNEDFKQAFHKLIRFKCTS

As to `CN[C@H]1CCc2[nH]c3ccc(C(N)=O)cc3c2C1` [Compound B, S-(-)-6-carboxamido-3-N-methylamino-1,2,3,4-tetrahydrocarbazole], the EC50 is more than 2000 nM.
